The record followed here is patent US8603465B1, “Methods for treatment of polyposis” (Merck Sharp & Dohme, Corp., priority 2006, dated 2013).

The test relates to C57Bl/6J (hIGF1R, Apc^Min/+) mice. The experiment in a line: Inhibition of polyposis in human IGF1R knock-in Apc Min/+ mice (adenoma number and diameter scored at postnatal day 80). As to conditions: small intestine and colon, 19D12 0.02, 0.1, 0.5 mg/mouse i.p. once a week, celecoxib 150, 500, 1500 ppm in diet. It is filed as in vivo. From the text: In this example, the ability of anti-IGF1R antibody 19D12 (LCF/HCA: amino acids 20-128 of SEQ ID NO: 8 and 20-137 of SEQ ID NO: 10) to treat familial adenomatous polyposis (FAP) is established in a mouse model for the disease. The model comprises the Apc^Min/+ allele which imparts the FAP phenotype. A phenotype that results from the allele is increased development of intestinal adenomas. The Min mutant mouse has an autosomal dominant heterozygous nonsense mutation in the mouse Apc gene (see e.g., Su et al., Science (Wash D.C.) 256: 668-670 (1992)).
The Min mice are also engineered, by a knock-in mutation, to express the human IGF1R gene. Expression of the IGF1R gene, in the Min mouse, allows determination of the ability of an anti-IGF1R antibody to alleviate the FAP phenotype. […]
Small intestinal adenomas and colonic adenomas are scored for number and diameter at postnatal day 80. […] Small intestine surface area is calculated by summation of the multiples of length of each fixed segment by width, which is measured at the midpoint of each segment. Colon surface area is calculated by multiplying the length of the fixed material from the anorectal junction to the point of insertion of the small intestine, omitting the appendix, by the width at the midpoint. Raw numbers of adenomas observed as well as adenomas per unit of small intestine and colon surface area are calculated.

Turning to “19D12 (LCF/HCA): anti-IGF1R antibody 19D12 (LCF/HCA: amino acids 20-128 of SEQ ID NO: 8 and 20-137 of SEQ ID NO: 10)”, the “adenomas per unit surface area” value is “dose-dependent reduction” and the raw adenoma number result is given as “dose-dependent reduction”.
